Legend:
Assay in all cases: IA-DTB cysteine engagement
Format in all cases: binding
Conditions in all cases: 22Rv1 cells, 20 μM probe, 1 h, relative to DMSO
[1] = target: T1, MGST3_C56 (Homo sapiens, UniProt O14880)
T1 construct: endogenous in cells; host or cells: 22Rv1
In short: (§1)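 In-situ probe treatment of cells; lysate 2 mg/mL, IA-DTB 1 h RT; MeOH/CHCl3 precipitation, DTT/iodoacetamide, trypsin; streptavidin enrichment; TMT labeling, high-pH fractionation. Ratio = TMT reporter intensity / mean DMSO channels, median-normalized.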

[2] = target: T2, HARS2_C173 (Homo sapiens, UniProt P49590)
T2 construct: endogenous in cells; host or cells: 22Rv1
T2 sequence (P49590 34-506): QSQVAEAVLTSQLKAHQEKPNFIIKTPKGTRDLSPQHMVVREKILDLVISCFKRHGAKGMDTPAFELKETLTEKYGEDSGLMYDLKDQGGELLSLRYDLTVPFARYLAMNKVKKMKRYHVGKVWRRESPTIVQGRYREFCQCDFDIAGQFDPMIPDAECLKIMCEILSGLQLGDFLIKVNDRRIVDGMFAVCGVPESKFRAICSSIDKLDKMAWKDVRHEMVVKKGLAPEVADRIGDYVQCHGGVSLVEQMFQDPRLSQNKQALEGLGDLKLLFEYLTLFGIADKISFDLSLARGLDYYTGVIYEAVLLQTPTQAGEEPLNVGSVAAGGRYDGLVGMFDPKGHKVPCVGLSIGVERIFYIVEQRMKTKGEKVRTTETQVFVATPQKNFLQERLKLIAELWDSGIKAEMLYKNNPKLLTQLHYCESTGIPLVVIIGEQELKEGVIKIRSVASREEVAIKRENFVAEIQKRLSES
In short: as §1

[3] = target: T3, GPAT4_C325 (Homo sapiens, UniProt Q86UL3)
T3 construct: endogenous in cells; host or cells: 22Rv1
T3 sequence (Q86UL3 38-456): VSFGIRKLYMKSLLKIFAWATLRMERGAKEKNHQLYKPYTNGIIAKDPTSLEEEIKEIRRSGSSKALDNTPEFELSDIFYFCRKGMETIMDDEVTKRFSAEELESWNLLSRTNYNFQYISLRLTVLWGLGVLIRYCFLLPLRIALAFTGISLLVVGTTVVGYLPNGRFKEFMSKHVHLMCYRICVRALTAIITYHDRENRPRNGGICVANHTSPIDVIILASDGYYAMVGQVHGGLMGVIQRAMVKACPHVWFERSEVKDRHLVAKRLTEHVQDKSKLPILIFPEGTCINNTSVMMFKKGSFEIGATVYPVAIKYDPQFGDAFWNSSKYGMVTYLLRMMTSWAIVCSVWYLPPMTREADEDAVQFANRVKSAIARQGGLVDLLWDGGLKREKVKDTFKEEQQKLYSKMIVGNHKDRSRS
In short: as §1

T1 sequence (O14880 whole entry): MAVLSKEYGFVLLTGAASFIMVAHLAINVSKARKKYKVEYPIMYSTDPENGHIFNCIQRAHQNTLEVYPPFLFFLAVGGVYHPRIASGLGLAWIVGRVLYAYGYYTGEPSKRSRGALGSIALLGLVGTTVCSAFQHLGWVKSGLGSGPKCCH

% engagement MGST3_C56 [1] | % engagement HARS2_C173 [2] | % engagement GPAT4_C325 [3] | Structure (SMILES)
63.5% | 35.25% | 67.25% | C=CC(=O)N1C[C@H](c2ccc(Br)cc2)[C@H]1C(=O)Nc1cccc2cccnc12 [MY-3A, (2S,3S)-1-acryloyl-3-(4-bromophenyl)-N-(quinolin-8-yl)azetidine-2-carboxamide]
58% | 63.75% | 80% | C=CC(=O)N1C[C@H](c2ccc(Br)cc2)[C@@H]1C(=O)Nc1cccc2cccnc12 [MY-1B, (2R,3S)-1-acryloyl-3-(4-bromophenyl)-N-(quinolin-8-yl)azetidine-2-carboxamide]
73.5% | 35.75% | 93.75% | C=CC(=O)N1C[C@H](c2ccc(Br)cc2)[C@H]1C(=O)Nc1cccc2cccnc12 [MY-3B, (2S,3S)-1-acryloyl-3-(4-bromophenyl)-N-(quinolin-8-yl)azetidine-2-carboxamide]
58.75% | 84.75% | 83.25% | C=CC(=O)N1C[C@@H](c2ccc(Br)cc2)[C@H]1C(=O)Nc1cccc2cccnc12 [MY-1A, (2S,3R)-1-acryloyl-3-(4-bromophenyl)-N-(quinolin-8-yl)azetidine-2-carboxamide]
